Reference: US6750202B1, “Phosphinate peptide analogs for the treatment of fibrotic disorders” (priority 1998, dated 2004)
*1 amine or outer side, *2 acyl side, *3 side chain or, on linkers, in order; H or OH if unused. Where a SMILES comes first, the peptide text is derived from it. [ ]: non-standard residue; d: D form. The star is where a group is joined. X1 = C[C@H](CP(=O)(O)[C@H](Cc1ccccc1)N[*:1])C(=O)[*:2]; Cbz = O=C(OCc1ccccc1)*

How the values were obtained:
[1] = target: recombinant PCP (procollagen C-proteinase) (Homo sapiens, UniProt P13497); details: 100 nM inhibitor; FIG. 1
Sequence of recombinant PCP (procollagen C-proteinase) (P13497 121-986, species assumed): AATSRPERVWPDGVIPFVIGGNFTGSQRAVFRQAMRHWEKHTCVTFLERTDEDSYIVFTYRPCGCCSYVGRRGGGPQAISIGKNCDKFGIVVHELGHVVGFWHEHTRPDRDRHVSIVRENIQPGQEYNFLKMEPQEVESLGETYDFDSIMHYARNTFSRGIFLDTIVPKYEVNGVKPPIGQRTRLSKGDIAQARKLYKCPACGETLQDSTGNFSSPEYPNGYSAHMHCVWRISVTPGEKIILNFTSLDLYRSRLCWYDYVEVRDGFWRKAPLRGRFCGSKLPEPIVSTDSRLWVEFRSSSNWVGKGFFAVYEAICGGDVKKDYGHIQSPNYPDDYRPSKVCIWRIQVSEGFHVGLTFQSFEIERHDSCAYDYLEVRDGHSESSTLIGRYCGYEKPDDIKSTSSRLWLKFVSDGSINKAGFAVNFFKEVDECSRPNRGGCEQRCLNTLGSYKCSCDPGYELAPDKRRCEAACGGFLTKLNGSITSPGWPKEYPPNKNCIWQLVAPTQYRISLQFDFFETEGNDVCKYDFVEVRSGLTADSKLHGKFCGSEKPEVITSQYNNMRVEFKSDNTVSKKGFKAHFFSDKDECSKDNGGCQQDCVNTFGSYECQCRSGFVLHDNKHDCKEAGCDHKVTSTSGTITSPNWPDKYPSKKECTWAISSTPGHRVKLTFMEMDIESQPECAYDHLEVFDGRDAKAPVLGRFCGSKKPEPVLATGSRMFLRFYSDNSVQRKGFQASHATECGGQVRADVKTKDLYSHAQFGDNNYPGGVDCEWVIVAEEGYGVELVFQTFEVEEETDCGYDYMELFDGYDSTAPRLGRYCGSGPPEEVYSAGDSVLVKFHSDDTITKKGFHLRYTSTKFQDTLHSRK

human meprin = details: concentrations of up to 100 nM; FIG. 3
Method: The meprin activity test was carried out in a completely analogous manner to the in-vitro assay for measuring PCP activity. Instead of the recombinant PCP, use was made of human meprin, which also transforms the fluorescence-labeled decapeptide.

With `COC(=O)[C@H](CC(C)C)NC(=O)[C@@H]1CCCN1C(=O)[C@H](C)CP(=O)(O)[C@H](Cc1ccccc1)NC(=O)[C@H](CCCCN)NC(=O)[C@@H]1CCCN1C(=O)OCc1ccccc1` [Z-PKF(PC)APL-O-Me] (Cbz-PK[X1]PL-OMe) the “inhibition of PCP enzyme activity (transformation of the DABCYL-EDANS-decapeptide substrate as a function of time)” value [1] was “almost completely inhibited” and the “inhibition of meprin in its transformation of the fluorescence-labeled peptide” value (human meprin) was “only slightly inhibited”.
